Experiment: gradient 5% acetonitrile 3 min, to 50% in 2 min, to 85% in 15 min, held 3 min, 100 µL/min
Settings: column: Zorbax Extend-C18 2.1 x 50 mm; eluents: water / acetonitrile, 0.1% formic acid
Summary of the method: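 Data were gathered over 3 months by HPLC coupled to a quadrupole time-of-flight mass spectrometer, operated in positive and negative ionization mode. Mixtures of ~100 pure standards ran on a Zorbax Extend-C18 column (2.1 × 50 mm, 1.8 μm) at 100 μL/min, with water and acetonitrile each containing 0.1% formic acid and dead and dwell volumes of 40 μL and 900 μL. Retention time was read from adduct peaks picked by computer and checked manually.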

RP-LC retention time [s]	SMILES
1280	CCCCn1c(=O)c2ccccc2n(Cc2nc(-c3ccc(OC(F)(F)F)cc3)no2)c1=O
547	CC(NC(=O)C1CCN(c2cncnc2N2CCOCC2)CC1)c1ccccn1 (configuration not stated)
963	CC1Oc2ccc(-c3csc(NC(=O)C(C)(C)C)n3)cc2N(C)C1=O (configuration not stated)
897	CCN(CC)c1nc(NC)nc(-n2cnc(SC)n2)n1
675	O=C(CSc1nnc2scc(-c3ccc(Cl)cc3)n12)NCC1CCCO1 (configuration not stated)
618	CC1(C)CC(NC(=O)COc2ccccc2Cl)CC(C)(C)N1
582	O=c1cc(-c2ccccc2)nc2n1CCN2CCCN1CCOCC1
803	Cc1cccc(NC(=O)C2CCCN(S(=O)(=O)c3cn(C(C)C)cn3)C2)c1 (configuration not stated)
1010	O=C(Nc1ccc(F)c(Cl)c1)Nc1nccn(-c2ccc(F)cc2)c1=O
613	COCCN(Cc1ccco1)C(=O)Cn1nc(Cc2cccnc2)c2ccccc2c1=O
740	Cc1ccc(C(=O)N2CCCCC2c2nncn2CC2CC2)s1 (configuration not stated)
1000	Cc1c(S(=O)(=O)N2CCCCC2)c(C)n(C)c1-c1nnc(C2CCC2)o1
816	COC(=O)c1cc2n(n1)CC(C)(C(=O)NC1CCC(C)CC1)N(Cc1ccccc1)C2=O (configuration not stated)
875	CN(C)c1ccc(N2C=C(C(=O)N3CCOCC3)S(=O)(=O)c3ccc(Cl)cc32)cc1
534	Cn1nc2n(c1=O)CCN(C(=O)c1cc(CN3CCOCC3)on1)CC2
631	CCc1nnc([C@@H]2CC(F)(F)CN2C(=O)c2nccn2C)o1
550	Cn1c(=O)n(CCCC#N)c2cncnc21
657	COc1ccc(-c2nc(C)cc(C)c2CNS(=O)(=O)c2cccc(F)c2)cc1
631	CCCn1cnc2cc(CNC(=O)C(C)c3ccccc3)ccc21 (configuration not stated)
614	c1csc(-c2nc(-c3ccc4c(c3)ncn4CCN3CCCC3)no2)c1
750	CCOC(=O)c1ccc(OC(=O)CCCCCN=C(N)N)cc1
734	CC(C)NC(=O)C1CCCN(S(=O)(=O)c2c[nH]c(C(=O)N3CCCCCC3)c2)C1 (configuration not stated)

RP-LC retention time [s]	SMILES
948	CCNS(=O)(=O)c1cccnc1Nc1ccccc1F
712	COc1ccc(NC(=O)N2CCC3(CC2)NC(=O)c2ccccc2O3)cc1
849	CCn1nccc1C(=O)N1CCCC1c1cccc(C)c1 (configuration not stated)
877	CC1(C(=O)NCc2ccc(F)cc2)CCN(C(=O)Nc2ccccc2C(F)(F)F)CC1
601	COc1ccc(C)cc1Nc1c(C(=O)N2CCCC2)cnc2nc(C)ccc12
732	COc1ccc(CNC(=O)N2C[C@H](c3nc(-c4ccncc4)no3)[C@@H](C)C2)cc1
752	O=C(NCc1cc(F)cc(F)c1)C1CCN(c2ncnc3c2oc2ccccc23)CC1
1050	COC1OC2COC(c3ccccc3)OC2C(=O)C1NC(=O)c1ccccc1 (configuration not stated)
851	O=C(NC(c1nnc(-c2ccccc2)o1)c1ccccc1F)c1ccco1 (configuration not stated)
1190	COCCCn1c(=O)c2ccccc2n(Cc2nc(-c3cccc(Br)c3)no2)c1=O
717	O=C(O)CCc1csc(NC(=O)Nc2ccc(Cl)cc2)n1
984	CCOc1ccc(NC(=O)c2c(N3CCCC3=O)c3cc(OC)ccc3n2C)cc1
821	COc1ccc2[nH]cc(CCN3CC(C(=O)Nc4cc(F)cc(F)c4)CC3=O)c2c1 (configuration not stated)
879	O=C(Cc1cccs1)Nc1ccc(OCc2nnc(-c3ccccc3)o2)cc1
895	O=S(=O)(c1ccc2nncn2c1)N(Cc1cc(F)cc(F)c1)c1cccc(F)c1
805	Cn1cc(S(=O)(=O)N2CCC(C(=O)N3CCc4ccccc43)CC2)cc1C(=O)N1CCCC1
838	Cc1ccc(NC(=O)C2CCN(S(=O)(=O)c3cn(C(C)C)cn3)CC2)c(Br)c1
792	CCN1CCCn2cc(S(=O)(=O)NCc3ccccc3C(F)(F)F)cc2C1=O
570	CN1CCN(CC2(O)CCC3(CCN(C(=O)c4ccsc4)CC3)CC2)CC1
1030	COc1ccc(-c2c(C(=O)Nc3cc(OC)ccc3OC)nc3ccccn23)cc1
690	CCc1ccc(S(=O)(=O)N2CCN(CCc3cn(CC)c4ncccc34)CC2)cc1
705	Cc1ccc(Nc2c(-c3cccc(O)c3)nc3ncccn23)cc1C

RP-LC retention time [s]	SMILES
829	COc1ccc(OC)c(NC(=O)C2c3ccccc3C(=O)N3CCc4cc(OC)c(OC)cc4C23)c1 (configuration not stated)
844	CCN1C(=O)COc2ccc(-c3nc(NC(=O)C4CCCO4)sc3C)cc21 (configuration not stated)
1140	Cc1cccc(Sc2nccnc2N2CCCC(C(=O)NCCC(C)C)C2)c1 (configuration not stated)
761	COc1ccc(CNC(=O)C2(C)CCN(C(=O)Nc3ccc(F)cc3)CC2)cc1
664	COC(=O)CCc1sc(Nc2c(C)n[nH]c2C)nc1-c1ccc(OC)cc1
681	Cc1cccc(N2CCN(C(=O)C3=CCN(Cc4ccccc4)CC3)CC2)c1
907	CN(C)C(=O)c1ccc(N2CCc3ccccc32)s1
905	Cc1ccc(Sc2ccc(N3CCCC(C(=O)NCc4ccccc4)C3)nn2)cc1 (configuration not stated)
642	Cc1cccn2c(Nc3ccc4c(c3)OCCO4)c(-c3ccc(O)cc3)nc12
729	COc1ccc(S(=O)(=O)N2C[C@H]3CN(C(=O)NCC(C)C)C[C@@H](C2)O3)cc1
591	CCCn1nc(C)cc1CN(C)C(=O)c1cn2ccccc2n1
732	CCc1c(C2CCN(C(=O)NCCc3ccccc3)CC2)noc1N
633	NC(=O)C1CCN(C(=O)c2nnn(-c3ccc(Cl)cc3)c2-c2cccnc2)CC1
754	CCCCNC(=O)C1CCCN(C(=O)c2[nH]c(C)c(C(=O)OC(C)C)c2C)C1 (configuration not stated)
845	CCc1ccccc1NC(=O)CN1C(=O)CCCc2cc(S(=O)(=O)N3CCCC3)ccc21
668	COc1ccc(CNC(=O)Cn2nc3c4sc(N(C)C)nc4ncn3c2=O)cc1
950	CC1CCCCC1Nc1nc(-c2ccc([N+](=O)[O-])cc2)nc2ccccc12 (configuration not stated)
762	Cc1cc2c(=O)n(CC(=O)Nc3ccc(F)cc3C)ccc2s1
834	CC(C)n1cnc(S(=O)(=O)N2CCC(C(=O)Nc3ccc(Br)cc3F)CC2)c1
820	Cc1ccc2c(c1)N(C(=O)N1CCC(C(=O)NCc3ccccc3)CC1)CCO2
794	CCc1noc(NC(C)=O)c1-c1ccc(OC)c(S(=O)(=O)NCc2ccc(F)cc2)c1
1030	COc1cc(C(=O)Nc2ncc(Cc3cccc4ccccc34)s2)cc(OC)c1OC

SMILES	RP-LC retention time [s]
CCOc1ccc(CNc2nc3ccccc3n2CCN(CC)CC)cc1	1300
